{"source": "paper PMC9649518", "about": "“Knockout of ABC transporters by CRISPR/Cas9 contributes to reliable and accurate transporter substrate identification for drug discovery” (Frontiers in Pharmacology, 2022)", "key": {"[1]": {"system": "Caco-2 WT cells", "test": "Bidirectional transport assay across Caco-2 WT monolayers", "conditions": "WT Caco-2, 5 μM substrate, n = 3; for Efflux ratio: Papp(B-to-A)/Papp(A-to-B)", "procedure": "(§4) For MRP2, the nonfluorescent compound CDCFDA was used as the probe substrate. […] After treatment, samples were transferred to black-walled 96-well assay plates. A standard curve of 2-fold serial dilution from 10 µM CDCF was generated. The CDCF concentration was measured based on the fluorescence in a microplate fluorescence reader (Tecan, Switzerland) set at 485 nm and 530 nm for the excitation and emission wavelengths, respectively."}, "[2]": {"system": "Caco^MRP2−/−BCRP−/− cells", "test": "Bidirectional transport assay across MRP2/BCRP double KO Caco-2 monolayers", "conditions": "Caco^MRP2−/−BCRP−/−, 5 μM substrate, n = 3", "procedure": "as §4"}, "[3]": {"system": "Caco^MRP2−/− cells", "test": "Bidirectional transport assay across MRP2 KO Caco-2 monolayers", "conditions": "Caco^MRP2−/−, 5 μM substrate, n = 3", "procedure": "as §4"}, "[4]": {"system": "BCRP single- and double-KO Caco-2 cell lines", "test": "Bidirectional transport assay, BCRP single- and double-KO cell lines taken together", "conditions": "5 μM substrate"}, "[5]": {"system": "MRP2 single- and double-KO Caco-2 cell lines", "test": "Bidirectional transport assay, MRP2 single- and double-KO cell lines taken together", "conditions": "5 μM substrate", "procedure": "For MRP2, the nonfluorescent compound CDCFDA was used as the probe substrate. This compound passively diffuses into cells and is hydrolyzed by intracellular esterases to the fluorescent product, CDCF, which is then rapidly excreted by MRP2 ([Sampson et al., 2015]). After treatment, samples were transferred to black-walled 96-well assay plates. A standard curve of 2-fold serial dilution from 10 µM CDCF was generated. The CDCF concentration was measured based on the fluorescence in a microplate fluorescence reader (Tecan, Switzerland) set at 485 nm and 530 nm for the excitation and emission wavelengths, respectively."}, "[6]": {"system": "Caco^Pgp−/−BCRP−/− cells", "test": "Bidirectional transport assay across P-gp/BCRP double KO Caco-2 monolayers", "conditions": "Caco^Pgp−/−BCRP−/−, 5 μM substrate, n = 3", "procedure": "as §4"}, "[7]": {"system": "Caco^Pgp−/−MRP2−/− cells", "test": "Bidirectional transport assay across P-gp/MRP2 double KO Caco-2 monolayers", "conditions": "Caco^Pgp−/−MRP2−/−, 5 μM substrate, n = 3", "procedure": "as §4"}, "[8]": {"system": "Caco^BCRP−/− cells", "test": "Bidirectional transport assay across BCRP KO Caco-2 monolayers", "conditions": "Caco^BCRP−/−, 5 μM substrate, n = 3", "procedure": "as §4"}, "[9]": {"system": "Caco^Pgp−/− cells", "test": "Bidirectional transport assay across P-gp KO Caco-2 monolayers", "conditions": "Caco^Pgp−/−, 5 μM substrate, n = 3"}, "[10]": {"test": "Bidirectional transport assay across Caco-2 WT monolayers", "conditions": "human", "procedure": "as §4"}, "[11]": {"test": "Bidirectional transport assay across MRP2/BCRP double KO Caco-2 monolayers", "conditions": "human", "procedure": "as §4"}, "[12]": {"system": "P-gp, BCRP, and MRP2 efflux transporters", "test": "Transporter substrate identification with the panel of WT and KO Caco-2 cells", "assay_type": "in vitro ADME, human", "conditions": "5 μM; ER ≥ 2 suggests active transport", "description": "(§1) The medium was replaced every second day.\n(§2) All these studies were conducted by following similar procedures. […] Then, HBSS was aspirated from both sides.\n(§3) The flow rate was 0.3 mL/min."}, "[13]": {"target": "T1, P-gp, BCRP, and MRP2 efflux transporters (Homo sapiens, UniProt Q92887)", "T1 construct": "endogenous in cells; host or cells: Caco-2 WT and CRISPR/Cas9 transporter-knockout Caco-2 clones", "T1 sequence (Q92887 whole entry)": "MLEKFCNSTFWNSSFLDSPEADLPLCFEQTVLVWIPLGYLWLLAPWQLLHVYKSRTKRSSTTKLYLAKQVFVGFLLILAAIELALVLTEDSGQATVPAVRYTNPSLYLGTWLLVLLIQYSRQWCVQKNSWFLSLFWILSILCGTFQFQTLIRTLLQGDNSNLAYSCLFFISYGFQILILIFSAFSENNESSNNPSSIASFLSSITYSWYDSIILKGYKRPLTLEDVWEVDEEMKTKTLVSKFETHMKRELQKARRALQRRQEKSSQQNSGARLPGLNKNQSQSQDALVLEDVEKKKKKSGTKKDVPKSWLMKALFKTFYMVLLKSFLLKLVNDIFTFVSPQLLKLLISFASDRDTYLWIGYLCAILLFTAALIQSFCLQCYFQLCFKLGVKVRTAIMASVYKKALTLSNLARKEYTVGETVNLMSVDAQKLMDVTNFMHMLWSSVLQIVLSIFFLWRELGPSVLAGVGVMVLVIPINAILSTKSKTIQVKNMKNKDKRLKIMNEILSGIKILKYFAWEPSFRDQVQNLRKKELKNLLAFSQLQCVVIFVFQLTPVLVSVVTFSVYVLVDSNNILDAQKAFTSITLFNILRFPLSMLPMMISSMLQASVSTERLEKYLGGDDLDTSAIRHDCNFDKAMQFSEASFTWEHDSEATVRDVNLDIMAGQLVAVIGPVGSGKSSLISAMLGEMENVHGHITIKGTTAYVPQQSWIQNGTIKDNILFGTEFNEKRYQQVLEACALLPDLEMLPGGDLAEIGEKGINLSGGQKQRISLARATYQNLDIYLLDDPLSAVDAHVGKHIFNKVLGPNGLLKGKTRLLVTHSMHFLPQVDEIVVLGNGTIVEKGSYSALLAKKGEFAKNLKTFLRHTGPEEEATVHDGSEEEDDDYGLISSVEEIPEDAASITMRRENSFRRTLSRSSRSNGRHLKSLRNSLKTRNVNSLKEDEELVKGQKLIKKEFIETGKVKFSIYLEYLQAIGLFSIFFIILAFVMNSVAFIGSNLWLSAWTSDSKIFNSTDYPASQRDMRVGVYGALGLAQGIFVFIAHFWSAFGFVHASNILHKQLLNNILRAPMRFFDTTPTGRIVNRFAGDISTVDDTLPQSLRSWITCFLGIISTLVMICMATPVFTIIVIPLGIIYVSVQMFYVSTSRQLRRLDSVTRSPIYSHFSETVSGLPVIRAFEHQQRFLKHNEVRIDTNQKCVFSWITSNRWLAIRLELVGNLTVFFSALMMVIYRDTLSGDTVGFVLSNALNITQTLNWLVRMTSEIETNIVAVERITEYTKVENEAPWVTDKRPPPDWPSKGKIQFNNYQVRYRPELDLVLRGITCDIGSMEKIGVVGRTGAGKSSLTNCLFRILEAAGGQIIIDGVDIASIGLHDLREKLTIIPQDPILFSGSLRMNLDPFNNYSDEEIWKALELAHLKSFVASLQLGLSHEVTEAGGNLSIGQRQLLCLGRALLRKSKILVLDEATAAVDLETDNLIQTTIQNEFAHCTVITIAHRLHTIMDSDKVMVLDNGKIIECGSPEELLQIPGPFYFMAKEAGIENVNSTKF", "test": "Transporter substrate identification with the panel of WT and KO Caco-2 cells", "assay_type": "in vitro ADME", "conditions": "5 μM", "description": "as §1, §2, §3"}, "[14]": {"test": "Bidirectional transport assay across MRP2 KO Caco-2 monolayers", "conditions": "human", "procedure": "as §4"}, "[15]": {"test": "Bidirectional transport assay, P-gp single- and double-KO cells taken together", "assay_type": "in vitro ADME", "conditions": "human, pH 7.4, 5 μM substrate", "description": "as §1, §2, §3"}, "[16]": {"test": "Bidirectional transport assay across P-gp/BCRP double KO Caco-2 monolayers", "conditions": "human, pH 7.4", "procedure": "as §4"}, "[17]": {"test": "Bidirectional transport assay across P-gp/MRP2 double KO Caco-2 monolayers", "conditions": "human, pH 7.4", "procedure": "as §4"}, "[18]": {"test": "Bidirectional transport assay across BCRP KO Caco-2 monolayers", "conditions": "human", "procedure": "as §4"}, "[19]": {"test": "Bidirectional transport assay across P-gp KO Caco-2 monolayers", "conditions": "human, pH 7.4"}, "[20]": {"system": "BCRP transporter", "parameters": "method as in Mease et al., 2012", "conditions": "1 µM inhibitor; Caco-2; ref Mease et al., 2012; cited from earlier work"}, "[21]": {"system": "P-gp", "parameters": "method as in Mease et al., 2012", "conditions": "10 µM inhibitor; Caco-2; ref Mease et al., 2012; cited from earlier work"}}}
{"smiles": "C[C@]12CC[C@@H]3c4ccc(OS(=O)(=O)O)cc4CC[C@H]3[C@@H]1CCC2=O", "note": "[Estrone 3-Sulfate, estrone 3-sulfate]", "values": [{"measurement": "Papp A-to-B", "setting": "[1]; 1 h, 37°C, HBSS pH 7.4", "value": "0.67 ± 0.12 ×10^−6cm/s"}, {"measurement": "Papp B-to-A", "setting": "[1]; 1 h, 37°C, HBSS pH 7.4", "value": "10.87 ± 0.20 ×10^−6cm/s"}, {"measurement": "Efflux ratio", "setting": "[1]", "value": "16.65 ± 2.90"}, {"measurement": "Efflux ratio", "setting": "[1]; listed as E3S", "value": 16.6}, {"measurement": "Papp A-to-B", "setting": "[2]; 1 h, 37°C, HBSS pH 7.4", "value": "0.97 ± 0.04 ×10^−6cm/s"}, {"measurement": "Papp B-to-A", "setting": "[2]; 1 h, 37°C, HBSS pH 7.4", "value": "0.92 ± 0.49 ×10^−6cm/s"}, {"measurement": "Efflux ratio", "setting": "[2]", "value": "0.96 ± 0.51"}, {"measurement": "Papp A-to-B", "setting": "[3]; 1 h, 37°C, HBSS pH 7.4", "value": "2.91 ± 0.32 ×10^−6cm/s"}, {"measurement": "Papp B-to-A", "setting": "[3]; 1 h, 37°C, HBSS pH 7.4", "value": "15.32 ± 3.10 ×10^−6cm/s"}, {"measurement": "Efflux ratio", "setting": "[3]", "value": "5.24 ± 0.59"}, {"measurement": "Efflux ratio", "setting": "[4]", "value": "0.8–1.3"}, {"measurement": "Efflux ratio compared with WT", "setting": "[5]", "value": "reduced significantly"}, {"measurement": "Papp A-to-B", "setting": "[6]; 1 h, 37°C, HBSS pH 7.4", "value": "1.88 ± 0.02 ×10^−6cm/s"}, {"measurement": "Papp B-to-A", "setting": "[6]; 1 h, 37°C, HBSS pH 7.4", "value": "1.54 ± 0.30 ×10^−6cm/s"}, {"measurement": "Efflux ratio", "setting": "[6]", "value": "0.820 ± 0.15"}, {"measurement": "Papp A-to-B", "setting": "[7]; 1 h, 37°C, HBSS pH 7.4", "value": "3.23 ± 0.08 ×10^−6cm/s"}, {"measurement": "Papp B-to-A", "setting": "[7]; 1 h, 37°C, HBSS pH 7.4", "value": "25.34 ± 2.06 ×10^−6cm/s"}, {"measurement": "Efflux ratio", "setting": "[7]", "value": "7.830 ± 0.46"}, {"measurement": "Papp A-to-B", "setting": "[8]; 1 h, 37°C, HBSS pH 7.4", "value": "1.15 ± 0.11 ×10^−6cm/s"}, {"measurement": "Papp B-to-A", "setting": "[8]; 1 h, 37°C, HBSS pH 7.4", "value": "1.58 ± 0.08 ×10^−6cm/s"}, {"measurement": "Efflux ratio", "setting": "[8]", "value": "1.36 ± 0.18"}, {"measurement": "Papp A-to-B", "setting": "[9]; 1 h, 37°C, HBSS pH 7.4", "value": "1.53 ± 0.24 ×10^−6cm/s"}, {"measurement": "Papp B-to-A", "setting": "[9]; 1 h, 37°C, HBSS pH 7.4", "value": "22.48 ± 1.01 ×10^−6cm/s"}, {"measurement": "Efflux ratio", "setting": "[9]", "value": "14.90 ± 1.63"}]}
{"smiles": "Cc1c(O)cccc1C(=O)N[C@@H](CSc1ccccc1)[C@H](O)CN1C[C@H]2CCCC[C@H]2C[C@H]1C(=O)NC(C)(C)C", "note": "[Nelfinavir]", "values": [{"measurement": "Papp A→B at 1 h, 5 μM", "setting": "[10]; Caco-2, pH 7.4", "value": "2.78 ± 0.39", "unit": "×10⁻⁶ cm/s"}, {"measurement": "Papp B→A at 1 h, 5 μM", "setting": "[10]; Caco-2, pH 7.4", "value": "12.2 ± 1.86", "unit": "×10⁻⁶ cm/s"}, {"measurement": "efflux ratio at 1 h, 5 μM", "setting": "[10]; Caco-2, pH 7.4, Efflux ratio, WT Caco-2, 5 μM substrate, Papp(B-to-A)/Papp(A-to-B), n = 3", "value": "4.47 ± 1.19"}, {"measurement": "Papp B→A at 1 h, 5 μM", "setting": "[11]; pH 7.4", "value": "17.9 ± 1.89", "unit": "×10⁻⁶ cm/s"}, {"measurement": "efflux ratio at 1 h, 5 μM", "setting": "[11]; pH 7.4", "value": "6.41 ± 0.35"}, {"measurement": "Papp A→B at 1 h, 5 μM", "setting": "[11]; pH 7.4, Papp A-to-B, Caco^MRP2−/−BCRP−/−, 5 μM substrate, 1 h, 37°C, HBSS pH 7.4, n = 3", "value": "2.79 ± 0.28", "unit": "×10⁻⁶ cm/s"}, {"measurement": "Efflux transporter substrate identification (conclusion from ERs in WT and KO cells)", "setting": "[12]", "value": "P-gp was the main transporter"}, {"measurement": "Substrate of MRP2 (conclusion from ERs in KO cells)", "setting": "[13]", "value": "cannot mediate"}, {"measurement": "Papp B→A at 1 h, 5 μM", "setting": "[14]; pH 7.4", "value": "14.7 ± 0.99", "unit": "×10⁻⁶ cm/s"}, {"measurement": "efflux ratio at 1 h, 5 μM", "setting": "[14]; pH 7.4", "value": "3.25 ± 0.31"}, {"measurement": "Papp A→B at 1 h, 5 μM", "setting": "[14]; pH 7.4, Papp A-to-B, Caco^MRP2−/−, 5 μM substrate, 1 h, 37°C, HBSS pH 7.4, n = 3", "value": "4.53 ± 0.26", "unit": "×10⁻⁶ cm/s"}, {"measurement": "efflux ratio at 1 h, 5 μM", "setting": "[15]", "value": "~1"}, {"measurement": "Papp A→B at 1 h, 5 μM", "setting": "[16]", "value": "7.54 ± 0.24", "unit": "×10⁻⁶ cm/s"}, {"measurement": "Papp B→A at 1 h, 5 μM", "setting": "[16]", "value": "3.22 ± 0.62", "unit": "×10⁻⁶ cm/s"}, {"measurement": "efflux ratio at 1 h, 5 μM", "setting": "[16]", "value": "0.43 ± 0.09"}, {"measurement": "Papp A→B at 1 h, 5 μM", "setting": "[17]", "value": "4.23 ± 0.22", "unit": "×10⁻⁶ cm/s"}, {"measurement": "Papp B→A at 1 h, 5 μM", "setting": "[17]", "value": "4.51 ± 0.63", "unit": "×10⁻⁶ cm/s"}, {"measurement": "efflux ratio at 1 h, 5 μM", "setting": "[17]", "value": "1.07 ± 0.42"}, {"measurement": "Efflux ratio", "setting": "[8]", "value": "2.25 ±0.34"}, {"measurement": "Papp A→B at 1 h, 5 μM", "setting": "[18]; pH 7.4", "value": "2.21 ± 0.41", "unit": "×10⁻⁶ cm/s"}, {"measurement": "Papp B→A at 1 h, 5 μM", "setting": "[18]; pH 7.4", "value": "4.88 ± 0.17", "unit": "×10⁻⁶ cm/s"}, {"measurement": "efflux ratio at 1 h, 5 μM", "setting": "[18]; pH 7.4, Efflux ratio, Caco^BCRP−/−, 5 μM substrate, n = 3", "value": "~2"}, {"measurement": "Papp A→B at 1 h, 5 μM", "setting": "[19]", "value": "4.17 ± 0.17", "unit": "×10⁻⁶ cm/s"}, {"measurement": "Papp B→A at 1 h, 5 μM", "setting": "[19]", "value": "2.18 ± 0.43", "unit": "×10⁻⁶ cm/s"}, {"measurement": "efflux ratio at 1 h, 5 μM", "setting": "[19]", "value": "0.41 ± 0.04"}]}
{"smiles": "COc1ccc2c3c([nH]c2c1)[C@H](C=C(C)C)N1C(=O)[C@@H]2CCCN2C(=O)[C@@H]1C3", "note": "[fumitremorgin C]", "values": [{"measurement": "Inhibition of the BCRP transporter", "setting": "[20]", "value": "selectively inhibited"}, {"measurement": "Inhibition of P-gp", "setting": "[21]", "value": "only partially inhibited"}]}
